{"source": "patent US9995730B2", "about": "“Hypoxia Inducible Factor (HIF) Activity Reporter Cell Line” (Universiti Putra Malaysia (UPM), priority 2012, dated 2018)", "key": {"HIF": {"system": "HIF", "test": "HIF activity reporter assay (single luciferase assay, 4XEPO-HRE-FLuc stable Saos-2 clone 3)", "type": "cell-based, human", "conditions": "for reporter signal intensities: FIGS. 9A and B legend", "procedure": "To confirm the HIF reporter activity of neomycin-resistant parental population, a single luciferase assay was conducted. Initially, 2.5×10^4 of the cells were plated in wells of a 48-well plates in antibiotic-free DMEM with 10% FBS for 16 hours. One of the plates was then incubated for 24 hours in a normoxic (21% 02) gaseous atmosphere in a humidified CO2 incubator while the other was incubated in a hypoxic (0.5% 02) gaseous environment in a hypoxic chamber (BioSpherix, USA) controlled by an oxygen regulator (ProOx model 110, BioSpherix, USA. After 24 hours of exposure to different oxygen concentrations, Bright-Glo™ Luciferase Assay (Promega, USA) was conducted to analyse the HIF reporter activity. Initially, growth media in each well was discarded and the cells were rinsed once with 300 μl of 1×PBS. Room temperature-equilibrated Glo Lysis Buffer (GLB; 60 μl) was then added into the wells. Plates were then gently rocked on a shaker for 5 min at room temperature. Cell lysis was confirmed visually by observing the wells of the 48-well plate under a light microscope. Thirty microliters of the resulting cell lysates were then transferred into individual glass vials. Bright-Glo™ Assay Reagent was then added into each tube at a 1:1 (v/v) ratio. Luminescence intensity was immediately read and recorded by a Luminometer (Sirius-2, Titertek-Berthold).\n(§1) To verify the property of the stable single cell population as an assay system to measure HIF activity, a proof of concept study was performed with commercially available and known HIF inhibitors. […] Treatment of these drugs in certain cancer cells leads to cell death. To confirm that the inhibition of bioluminescence in our cell assay system is due to HIF inhibition rather than this cytotoxic effect, we simultaneously determined the viability of cells under various concentrations of each drug used for the inhibition assay. The 3-(4,5-dimethylthiazol-2-yl)-2,5-[…] bromide MTT assay was used. […] The cells were then incubated in either normoxic or hypoxic conditions for 24 hours. After the treatment, cell culture media was replaced with fresh serum-free DMEM containing 0.5 mg/ml MTT. After 4 hours of incubation in a humidified CO2 incubator at 37° C., formazan precipitates were dissolved with 100 μl of DMSO. The resulting reaction was read using a microplate reader at 570 nm absorbance and 630 nm as the reference wavelength. The half maximal inhibitory concentration (IC50) of each drug towards the cells was determined by plotting graphs using the Graphpad Prism 5 software. HIF inhibitory effects at the various concentrations of drugs tested were also measured using the single luciferase assay system. A correlation between the drugs' effects on cell viability and HIF inhibition was then evaluated."}, "[1]": {"system": "clone 3 cells (stable Saos-2 osteosarcoma clone)", "test": "MTT cell viability assay", "type": "cell-based, human", "procedure": "as §1, with “To confirm that the inhibition of bioluminescence in our cell assay system is due to HIF inhibition rather than this cytotoxic effect, we simultaneously determined the viability of cells under various concentrations of each drug used for the inhibition assay.” left out"}}, "data": [{"smiles": "N.N.[Cl][Pt][Cl]", "note": "[cisplatin]", "values": [{"measurement": "reporter signal intensities", "setting": "HIF", "result": "reduction of reporter signal intensities"}, {"measurement": "inhibition of luciferase signals", "setting": "HIF; hypoxic clone 3, 25 μM concentration", "result": "~60", "unit": "%"}]}, {"smiles": "CC(C)C[C@H](NC(=O)[C@H](Cc1ccccc1)NC(=O)c1cnccn1)B(O)O", "note": "[Bortezomib]", "values": [{"measurement": "cell viability", "setting": "[1]; concentrations higher than 500 nM", "result": "the inhibition was associated with cell death"}, {"measurement": "cell viability", "setting": "[1]; concentrations of up to 500 nM", "result": "without affecting cell viability"}, {"measurement": "reporter signal intensities", "setting": "HIF", "result": "reduction of reporter signal intensities"}, {"measurement": "hypoxia-induced luciferase signal", "setting": "HIF; clone 3 cells, hypoxia, concentrations of up to 500 nM", "result": "significantly reduced"}]}]}
